Results taken from ChEMBL document CHEMBL4477215, “Specific Correction of Alternative Survival Motor Neuron 2 Splicing by Small Molecules: Discovery of a Potential Novel Medicine To Treat Spinal Muscular Atrophy” (J Med Chem, 2016).

Assays:
[1] = system: Mus musculus; experiment: (§1) Inhibition of mRNA splicing of SMN2 exon 7 in neonatal delta7 mouse harboring FVB.Cg-Tg(SMN2 delta7)4299Ahmb Tg(SMN2)-89Ahmb Smn1tm1Msd/J assessed as increase in SMN protein level in brain at 0.3 mg/kg, ip qd administered from postnatal day 3 to postnatal day 9 measured 1 hr after last dose by HTRF assay relative to control; assay type: functional; design: scale not given: the % may be the effect or the level left
[2] = system: Mus musculus; experiment: as §1, with “quadriceps” for “brain”, “1” for “0.3”; assay type: functional; design: scale not given: the % may be the effect or the level left
[3] = system: Mus musculus; experiment: Inhibition of mRNA splicing of SMN2 exon 7 in C/C-allele mouse harboring FVB.129(B6) Smn1tm5(Smn1/SMN2)Mrph/J assessed as increase in SMN protein level in brain administered orally po qd for 10 days measured 1 hr after 10th dose by HTRF assay; assay type: functional, organism-based
[4] = Clearance in rat at 2 mg/kg, iv; assay type: ADME, organism-based; details: in vivo
[5] = system: Mus musculus; experiment: as §1, with “quadriceps administered” for “brain at 0.3 mg/kg,”, “dosed” for “administered”, “assay” for “assay relative to control”; assay type: functional, organism-based
[6] = Mutagenicity in Salmonella typhimurium TA98 assessed as increase in revertant colonies after 2 days in presence of rat liver S9 fraction by Ames test relative to control; assay type: toxicity; details: salmonella enterica subsp. enterica serovar typhimurium, s9, 48 h
[7] = Unbound AUC in plasma of C/C-allele mouse harboring FVB.129(B6)-Smn1tm5(Smn1/SMN2)Mrph/J at 10 mg/kg, po; assay type: ADME, organism-based; details: in vivo
[8] = system: Mus musculus; experiment: as §1, with “1” for “0.3”; assay type: functional; design: scale not given: the % may be the effect or the level left
[9] = system: Mus musculus; experiment: Inhibition of mRNA splicing of SMN2 exon 7 in neonatal delta7 mouse harboring FVB.Cg-Tg(SMN2 delta7)4299Ahmb Tg(SMN2)-89Ahmb Smn1tm1Msd/J assessed as increase in SMN protein level in brain administered ip qd dosed from postnatal day 3 to postnatal day 9 measured 1 hr after last dose by HTRF assay; assay type: functional, organism-based
[10] = system: Mus musculus; experiment: Inhibition of mRNA splicing of SMN2 exon 7 in C/C-allele mouse harboring FVB.129(B6) Smn1tm5(Smn1/SMN2)Mrph/J assessed as increase in SMN protein level in brain at 10 mg/kg, po qd for 10 days measured 1 hr after 10th dose by HTRF assay relative to control; assay type: functional; design: scale not given: the % may be the effect or the level left
[11] = species: Homo sapiens; experiment: Inhibition of mRNA splicing of SMN2 exon 7 in GM03813 fibroblasts derived from human SMA type 1 patient after 24 hrs by RT-qPCR analysis
[12] = Fraction unbound in human plasma; assay type: ADME, cell-free
[13] = system: Mus musculus; experiment: Inhibition of mRNA splicing of SMN2 exon 7 in C/C-allele mouse harboring FVB.129(B6) Smn1tm5(Smn1/SMN2)Mrph/J assessed as increase in SMN protein level in brain at 1 mg/kg, po qd for 10 days measured 1 hr after 10th dose by HTRF assay relative to control; assay type: functional; design: scale not given: the % may be the effect or the level left
[14] = Fraction unbound in Cynomolgus monkey plasma; assay type: ADME, cell-free, Macaca fascicularis
[15] = Volume of distribution at steady state in Cynomolgus monkey at 0.3 mg/kg, iv; assay type: ADME, organism-based, Macaca fascicularis; details: in vivo, read-out: Vdss
[16] = system: Mus musculus; experiment: Inhibition of mRNA splicing of SMN2 exon 7 in C/C-allele mouse harboring FVB.129(B6) Smn1tm5(Smn1/SMN2)Mrph/J assessed as increase in SMN protein level in quadriceps at 10 mg/kg, po qd for 10 days measured 1 hr after 10th dose by HTRF assay relative to control; assay type: functional; design: scale not given: the % may be the effect or the level left
[17] = Fraction unbound in rat plasma; assay type: ADME, cell-free
[18] = Half life in Cynomolgus monkey at 1 mg/kg, po; assay type: ADME, organism-based, Macaca fascicularis; details: in vivo
[19] = Volume of distribution at steady state in rat at 2 mg/kg, iv; assay type: ADME, organism-based; details: in vivo, read-out: Vdss
[20] = system: Mus musculus; experiment: Inhibition of mRNA splicing of SMN2 exon 7 in C/C-allele mouse harboring FVB.129(B6) Smn1tm5(Smn1/SMN2)Mrph/J assessed as increase in SMN protein level in quadriceps at 3 mg/kg, po qd for 10 days measured 1 hr after 10th dose by HTRF assay relative to control; assay type: functional; design: scale not given: the % may be the effect or the level left
[21] = Clearance in Cynomolgus monkey at 0.3 mg/kg, iv; assay type: ADME, organism-based, Macaca fascicularis; details: in vivo
[22] = AUC in plasma of C/C-allele mouse harboring FVB.129(B6)-Smn1tm5(Smn1/SMN2)Mrph/J at 10 mg/kg, po; assay type: ADME, organism-based
[23] = target: P-gp (ABCB1) (Homo sapiens, UniProt P08183); experiment: Substrate activity at human P-gp assessed as efflux ratio by cell based assay; details: not told
P-gp (ABCB1), sequence (P08183 whole entry): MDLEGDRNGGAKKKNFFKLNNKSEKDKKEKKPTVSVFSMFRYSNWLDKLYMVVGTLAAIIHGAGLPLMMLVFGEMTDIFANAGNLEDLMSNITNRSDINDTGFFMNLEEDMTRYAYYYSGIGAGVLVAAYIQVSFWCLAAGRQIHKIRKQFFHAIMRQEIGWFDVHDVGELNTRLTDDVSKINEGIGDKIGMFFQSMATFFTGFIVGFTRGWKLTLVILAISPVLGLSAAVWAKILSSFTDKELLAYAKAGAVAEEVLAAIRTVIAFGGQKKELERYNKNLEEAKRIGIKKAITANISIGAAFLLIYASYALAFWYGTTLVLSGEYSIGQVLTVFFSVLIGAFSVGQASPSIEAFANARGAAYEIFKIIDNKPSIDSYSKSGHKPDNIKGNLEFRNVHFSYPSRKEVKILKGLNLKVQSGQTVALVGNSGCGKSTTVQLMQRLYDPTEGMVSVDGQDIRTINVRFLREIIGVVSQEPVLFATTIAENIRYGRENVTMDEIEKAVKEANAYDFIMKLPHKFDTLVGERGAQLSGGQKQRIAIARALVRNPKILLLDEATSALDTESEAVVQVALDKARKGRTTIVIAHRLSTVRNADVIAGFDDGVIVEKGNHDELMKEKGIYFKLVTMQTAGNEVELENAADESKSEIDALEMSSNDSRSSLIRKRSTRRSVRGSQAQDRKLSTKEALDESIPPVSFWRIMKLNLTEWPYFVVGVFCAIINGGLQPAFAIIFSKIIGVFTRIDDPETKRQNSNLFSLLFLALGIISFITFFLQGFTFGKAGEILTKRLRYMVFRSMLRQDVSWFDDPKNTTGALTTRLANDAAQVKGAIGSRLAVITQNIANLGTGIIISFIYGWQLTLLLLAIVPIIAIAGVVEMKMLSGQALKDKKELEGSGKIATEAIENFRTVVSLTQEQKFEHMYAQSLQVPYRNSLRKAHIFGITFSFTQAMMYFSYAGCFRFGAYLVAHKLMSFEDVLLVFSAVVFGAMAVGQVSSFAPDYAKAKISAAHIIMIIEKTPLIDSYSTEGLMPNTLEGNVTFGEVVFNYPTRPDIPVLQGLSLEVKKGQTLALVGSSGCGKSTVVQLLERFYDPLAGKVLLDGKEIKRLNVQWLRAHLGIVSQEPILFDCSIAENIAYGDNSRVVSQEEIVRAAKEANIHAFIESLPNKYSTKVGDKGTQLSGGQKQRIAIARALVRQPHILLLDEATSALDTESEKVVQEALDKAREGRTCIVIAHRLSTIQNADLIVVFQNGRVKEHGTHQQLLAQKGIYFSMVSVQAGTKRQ

[24] = Octanol-aqueous phosphate buffer distribution coefficient, log D of the compound at pH 7.4 at 100 mM after 24 hrs by LC-MS based shake flask method; assay type: physicochemical
[25] = system: Mus musculus; experiment: Inhibition of mRNA splicing of SMN2 exon 7 in C/C-allele mouse harboring FVB.129(B6) Smn1tm5(Smn1/SMN2)Mrph/J assessed as increase in SMN protein level in quadriceps at 1 mg/kg, po qd for 10 days measured 1 hr after 10th dose by HTRF assay relative to control; assay type: functional; design: scale not given: the % may be the effect or the level left
[26] = Oral bioavailability in Cynomolgus monkey at 1 mg/kg; assay type: ADME, organism-based, Macaca fascicularis; details: in vivo
[27] = Mutagenicity in Salmonella typhimurium TA102 assessed as increase in revertant colonies after 2 days in presence of rat liver S9 fraction by Ames test relative to control; assay type: toxicity; details: salmonella enterica subsp. enterica serovar typhimurium, s9, 48 h
[28] = Mutagenicity in Salmonella typhimurium TA100 assessed as increase in revertant colonies after 2 days in presence of rat liver S9 fraction by Ames test relative to control; assay type: toxicity; details: salmonella enterica subsp. enterica serovar typhimurium, s9, 48 h
[29] = Half life in rat at 10 mg/kg, po; assay type: ADME, organism-based; details: in vivo
[30] = system: Mus musculus; experiment: Inhibition of mRNA splicing of SMN2 exon 7 in C/C-allele mouse harboring FVB.129(B6) Smn1tm5(Smn1/SMN2)Mrph/J assessed as increase in SMN protein level in quadriceps administered orally qd for 10 days measured 1 hr after 10th dose by HTRF assay; assay type: functional, organism-based
[31] = Oral bioavailability in rat at 10 mg/kg; assay type: ADME, organism-based; details: in vivo
[32] = Mutagenicity in Salmonella typhimurium TA97 assessed as increase in revertant colonies after 2 days in presence of rat liver S9 fraction by Ames test relative to control; assay type: toxicity; details: salmonella enterica subsp. enterica serovar typhimurium, s9, 48 h
[33] = Fraction unbound in mouse plasma; assay type: ADME, cell-free
[34] = species: Homo sapiens; experiment: Inhibition of mRNA splicing of SMN2 exon 7 in fibroblasts derived from human SMA type 1/2/3 patient assessed as increase in SMN protein level after 48 hrs by HTRF assay
[35] = system: Mus musculus; experiment: as §1, with “quadriceps” for “brain”; assay type: functional; design: scale not given: the % may be the effect or the level left

SMILES | Activity [1] [%] | Activity [2] [%] | inhibition [3] | clearance [4] [mL/min/kg] | inhibition [5] | Activity [6] | fAUC [7] [ng·h/mL] | Activity [8] [%] | inhibition [9] | Activity [10] [%] | EC1.5 [11] [nM] | fraction unbound [12] | Activity [13] [%] | fraction unbound [14] | Vd [15] [L/kg] | Activity [16] [%] | fraction unbound [17] | half-life [18] [h] | Vd [19] [L/kg] | Activity [20] [%] | other results
CCc1nc(C)cn2nc(-c3cc(=O)n4cc(C5CCN(C)CC5)cc(C)c4n3)cc12 | 20 | 57 | Dose-dependent effect | 18 | Dose-dependent effect | Non-Toxic | 660 | 55 | Dose-dependent effect | 122 | 23 | 0.13 | 7 | 0.16 | 20 | 94 | 0.17 | 40 to 60 | 20 | 57 | clearance [21]: 5 mL/min/kg; AUC [22]: 33000 ng·h/mL; efflux ratio [23]: 2; logD at 24 h [24]: 2.26; Activity [25]: 30%; bioavailability [26]: 52%; Activity [27]: Non-Toxic; Activity [28]: Non-Toxic; half-life [29]: 12 h; inhibition [30]: Dose-dependent effect; bioavailability [31]: 83%; Activity [32]: Non-Toxic; fraction unbound [33]: 0.02; EC1.5 [34]: 87 nM; Activity [35]: 40%
Cc1cn2cc(-c3cc(=O)n4cc(N5CCN(C)CC5)ccc4n3)cc(C)c2n1 | 39 | 115 | Dose-dependent effect | 38 | Dose-dependent effect | Non-Toxic | 400 | 130 | Dose-dependent effect | 39 | 7 | 0.11 | 0 | 0.08 | 4.3 | 133 | 0.1 | 8 | 14 | 70 | clearance [21]: 7.5 mL/min/kg; AUC [22]: 2500 ng·h/mL; efflux ratio [23]: 2.4; logD at 24 h [24]: 2.49; Activity [25]: 28%; bioavailability [26]: 100%; Activity [27]: Non-Toxic; Activity [28]: Non-Toxic; half-life [29]: 6 h; inhibition [30]: Dose-dependent effect; bioavailability [31]: 55 to 100%; Activity [32]: Non-Toxic; fraction unbound [33]: 0.16; EC1.5 [34]: 14 to 55 nM; Activity [35]: 31%
Cc1cn2cc(-c3cc(=O)n4cc(N5CCN(C)CC5)ccc4n3)cc(F)c2n1 | 116 | 260 | Dose-dependent effect | 61 | Dose-dependent effect | Non-Toxic | 450 | 159 | Dose-dependent effect | 141 | 32 | 0.22 | 42 | 0.18 | 2.4 | 126 | 0.16 | 2.9 | 5 | 81 | clearance [21]: 9.7 mL/min/kg; AUC [22]: 2700 ng·h/mL; efflux ratio [23]: 1.9; logD at 24 h [24]: 2.3; Activity [25]: 40%; bioavailability [26]: 84%; Activity [27]: Non-Toxic; Activity [28]: Non-Toxic; half-life [29]: 4 h; inhibition [30]: Dose-dependent effect; bioavailability [31]: 100%; Activity [32]: Non-Toxic; fraction unbound [33]: 0.17; EC1.5 [34]: 40 nM; Activity [35]: 189%
